Results on eleven compounds are retold here after patent publication US11041000B2, “Peptide inhibitors of interleukin-23 receptor and their use to treat inflammatory diseases” (priority 2019, dated 2021).

Numbered stars: 1 amine (or outer) side, 2 acyl side, 3 side chain; on linkers, the order of the positions; unused ones are H or OH. Bridge positions count the residues as written; N and C are the ends. Square brackets hold non-standard residues; d marks the D form. Peptide text beside a SMILES is read from it. X3 = CCc1ccc2c(C[C@H](N[*:1])C(=O)[*:2])c[nH]c2c1; Trp(7-Me) = Cc1cccc2c(C[C@H](N)C(=O)O)c[nH]c12; Trp(2-Me) = Cc1[nH]c2ccccc2c1C[C@H](N)C(=O)O; 2Nal = N[C@@H](Cc1ccc2ccccc2c1)C(=O)O; d2Nal = N[C@H](Cc1ccc2ccccc2c1)C(=O)O; AEF = NCCOc1ccc(C[C@H](N)C(=O)O)cc1; Cit = NC(=O)NCCC[C@H](N)C(=O)O; Pen = CC(C)(S)[C@H](N)C(=O)O; αMeK = C[C@](N)(CCCCN)C(=O)O; Aib = CC(C)(N)C(=O)O

Assay type in all cases: in vitro ADME
Data set [1] can be described thus: Stability in simulated intestinal fluid (SIF). The note with it: simulated intestinal fluid with pancreatin, pH 6.8, 37° C., matrix is 100 fold dilution of standard SIF concentration; for half-life at 20 μM: read-out: SIF t½ (converted); for SIF t½: 20 μM.
Protocol: SIF was prepared by adding 6.8 g of monobasic potassium phosphate and 10.0 g of pancreatin to 1.0 L of water. After dissolution, the pH was adjusted to 6.8 using NaOH. DMSO stocks (2 mM) were first prepared for the test compounds. Aliquots of the DMSO solutions were dosed into 6 individual tubes, each containing 0.5 mL of SIF, which is pre-warmed to 37° C. The final test compound concentration was 20 μM. The vials were kept in a benchtop Thermomixer® for the duration of the experiment. At each timepoint (0, 5, 10, 20, 40, 60, or 360 minutes or 24 hours), 1.0 mL of acetonitrile containing 1% formic acid was added to one vial to terminate the reaction. Samples were stored at 4° C. until the end of the experiment. After the final timepoint is sampled, the tubes were mixed and then centrifuged at 3,000 rpm for 10 minutes. Aliquots of the supernatant were removed, diluted 1:1 into distilled water containing internal standard, and analyzed by LCMS/MS. Percent remaining at each timepoint was calculated based on the peak area response ratio of test to compound to internal standard. Time 0 was set to 100%, and all later timepoints were calculated relative to time 0. Half-lives were calculated by fitting to a first-order exponential decay equation using Graphpad.
Data set [2] is described as follows: Stability in human fecal homogenate. As to conditions: 20% fecal homogenate (supernatant), pH 6.8, 20% human fecal homogenate, anaerobic, 37° C., read-out: t½: Human Feces anaerobic (converted). The procedure: (§1) Centrifuged the homogenate at 2800×g for 15 min. The supernatant is taken out and used for incubations. […] The final test compound concentration was 20 μM.

Data set [3] in a line: Stability in cynomolgus monkey fecal homogenate. The note with it: 20% fecal homogenate (supernatant), pH 6.8, 20% cynomolgus monkey fecal homogenate, anaerobic, 37° C., read-out: t½: Monkey Feces anaerobic (converted). The protocol: as §1
The next data set is described as follows: Stability in rat plasma. The note with it: both sexes, SD rat plasma, EDTA, 37° C., read-out: t½: Rat Plasma EDTA (converted).

Protocol for Stability in rat plasma: Peptides of interest (20 μM) were incubated with pre-warmed rat plasma (SD rat, mixed gender pooled, EDTA, filtered through 0.22 μm, BioreclamationIVT) at 37° C. […] Quenched samples were stored at 4° C. until the end of the experiment and centrifuged at 4,000 rpm for 10 minutes. The supernatant were diluted 1:1 with deionized water and analyzed using LC-MS. Percentage remaining at each time point was calculated based on the peak area ratio (analyte over internal standard) relative to the initial level at time zero. Half-lives were calculated by fitting to a first-order exponential decay equation using GraphPad.

With `CC(=O)NCCCC[C@H](NC(=O)[C@](C)(CCCCN)NC(=O)[C@H](Cc1ccc2ccccc2c1)NC(=O)[C@H](Cc1ccc(OCCN)cc1)NC(=O)[C@H]1NC(=O)[C@H](CCCNC(N)=O)NC(=O)[C@H](Cc2c[nH]c3c(C)cccc23)NC(=O)[C@H]([C@@H](C)O)NC(=O)[C@H](CC(N)=O)NC(=O)[C@@H](NC(C)=O)C(C)(C)SSC1(C)C)C(=O)N[C@@H](CC(N)=O)C(=O)NC(C)(C)C(=O)N[C@H](Cc1ccc(O)cc1)C(N)=O` [compound 347] (Ac-[Pen]NT[Trp(7-Me)][Cit][Pen][AEF][2Nal][αMeK]K(Ac)N[Aib][dY]-NH2; disulfide 1-6), the half-life at 20 μM is 12 h in data set [1], greater than 24 h in data set [2], greater than 24 h in data set [3] and greater than 24 h in the data set “Stability in rat plasma”.
In the case of `CC(=O)NCCCC[C@H](NC(=O)[C@](C)(CCCCN)NC(=O)[C@H](Cc1ccc2ccccc2c1)NC(=O)[C@H](Cc1ccc(OCCN)cc1)NC(=O)[C@H]1NC(=O)[C@H](CCCNC(N)=O)NC(=O)[C@H](Cc2c[nH]c3c(C)cccc23)NC(=O)[C@H]([C@@H](C)O)NC(=O)[C@H](CC(N)=O)NC(=O)[C@@H](NC(C)=O)C(C)(C)SSC1(C)C)C(=O)N[C@@H](CC(N)=O)C(=O)NC(C)(C)C(=O)N[C@H](Cc1ccc2ccccc2c1)C(N)=O` [compound 348] (Ac-[Pen]NT[Trp(7-Me)][Cit][Pen][AEF][2Nal][αMeK]K(Ac)N[Aib][d2Nal]-NH2; disulfide 1-6), the half-life at 20 μM in data set [1] was 13 h; in data set [2] it was greater than 24 h; in data set [3] it was greater than 24 h; in the data set “Stability in rat plasma”, greater than 24 h.
For `CCc1ccc2c(C[C@@H]3NC(=O)[C@H]([C@@H](C)O)NC(=O)[C@H](CC(N)=O)NC(=O)[C@@H](NC(C)=O)C(C)(C)SSC(C)(C)[C@@H](C(=O)N[C@@H](Cc4ccc(OCCN)cc4)C(=O)N[C@@H](Cc4ccc5ccccc5c4)C(=O)N[C@@](C)(CCCCN)C(=O)N[C@@H](CCCCNC(C)=O)C(=O)N[C@@H](CC(N)=O)C(=O)N[C@H](CCCCN)C(N)=O)NC(=O)[C@H](CCCCNC(C)=O)NC3=O)c[nH]c2c1` [compound 349] (Ac-[Pen]NT[X3]K(Ac)[Pen][AEF][2Nal][αMeK]K(Ac)N[dK]-NH2; disulfide 1-6), the “SIF t½” value in data set [1] is 24 h. Further, the half-life at 20 μM (in data set [2]; in data set [3]; in “Stability in rat plasma”) was greater than 24 h in each case.
Turning to `CC(=O)NCCCC[C@@H]1NC(=O)[C@H](Cc2c(C)[nH]c3ccccc23)NC(=O)[C@H]([C@@H](C)O)NC(=O)[C@H](CC(N)=O)NC(=O)[C@@H](NC(C)=O)C(C)(C)SSC(C)(C)[C@@H](C(=O)N[C@@H](Cc2ccc(OCCN)cc2)C(=O)N[C@@H](Cc2ccc3ccccc3c2)C(=O)N[C@@](C)(CCCCN)C(=O)N[C@@H](CCCCNC(C)=O)C(=O)N[C@@H](CC(N)=O)C(=O)N[C@H](CCCCN)C(N)=O)NC1=O` [compound 351], the half-life at 20 μM was 12 h in data set [1], greater than 24 h in data set [2], greater than 24 h in data set [3] and greater than 24 h in “Stability in rat plasma”.
In the case of `CC(=O)NCCCC[C@@H]1NC(=O)[C@H](Cc2c[nH]c3c(C)cccc23)NC(=O)[C@H]([C@@H](C)O)NC(=O)[C@H](CC(N)=O)NC(=O)[C@@H](NC(C)=O)C(C)(C)SSC(C)(C)[C@@H](C(=O)N[C@@H](Cc2ccc(OCCN)cc2)C(=O)N[C@@H](Cc2ccc3ccccc3c2)C(=O)N[C@@](C)(CCCCN)C(=O)N[C@@H](CCCCNC(C)=O)C(=O)N[C@@H](CO)C(=O)N[C@H](CCCCN)C(N)=O)NC1=O` [compound 352], the half-life at 20 μM in data set [1] was 7 h; in data set [2], greater than 24 h; in data set [3], greater than 24 h; in “Stability in rat plasma” it was greater than 24 h.
Consider `CC(=O)NCCCC[C@@H]1NC(=O)[C@H](Cc2c[nH]c3c(C)cccc23)NC(=O)[C@H]([C@@H](C)O)NC(=O)[C@H](CC(N)=O)NC(=O)[C@@H](NC(C)=O)C(C)(C)SSC(C)(C)[C@@H](C(=O)N[C@@H](Cc2ccc(OCCN)cc2)C(=O)N[C@@H](Cc2c(C)[nH]c3ccccc23)C(=O)N[C@@](C)(CCCCN)C(=O)N[C@@H](CCCCNC(C)=O)C(=O)N[C@@H](CC(N)=O)C(=O)N[C@H](CCCCN)C(N)=O)NC1=O` [compound 353] (Ac-[Pen]NT[Trp(7-Me)]K(Ac)[Pen][AEF][Trp(2-Me)][αMeK]K(Ac)N[dK]-NH2; disulfide 1-6), for which the “SIF t½” value in data set [1] is 24 h. Further, the half-life at 20 μM (in data set [2]; in data set [3]; in the data set “Stability in rat plasma”) was greater than 24 h in each case.
Take `CC(=O)NCCCC[C@@H]1NC(=O)[C@H](Cc2c[nH]c3c(C)cccc23)NC(=O)[C@H]([C@@H](C)O)NC(=O)[C@H](CC(N)=O)NC(=O)[C@@H](NC(C)=O)C(C)(C)SSC(C)(C)[C@@H](C(=O)N[C@@H](Cc2ccc(OCCN)cc2)C(=O)N[C@@H](Cc2ccc3ccccc3c2)C(=O)N[C@@](C)(CC(C)C)C(=O)N[C@@H](CCCCNC(C)=O)C(=O)N[C@@H](CC(N)=O)C(=O)N[C@H](CC(N)=O)C(N)=O)NC1=O` [compound 354]: the half-life at 20 μM in data set [1] was 11 h; in data set [2], greater than 24 h; in data set [3], greater than 24 h; in the data set “Stability in rat plasma”, 7 h.
Regarding `CC(=O)NCCCC[C@@H]1NC(=O)[C@H](Cc2c[nH]c3c(C)cccc23)NC(=O)[C@H]([C@@H](C)O)NC(=O)[C@H](CC(N)=O)NC(=O)[C@@H](NC(C)=O)C(C)(C)SSC(C)(C)[C@@H](C(=O)N[C@@H](Cc2ccc(OCCN)cc2)C(=O)N[C@@H](Cc2ccc3ccccc3c2)C(=O)N[C@@](C)(CCCCN)C(=O)N[C@@H](CCCCNC(=O)[C@H](C)N)C(=O)N[C@@H](CC(N)=O)C(=O)N[C@H](CC(C)C)C(N)=O)NC1=O` [compound 355], the half-life at 20 μM in data set [1] is 8 h; in data set [2] it was 12 h; in data set [3], greater than 24 h; in the data set “Stability in rat plasma”, greater than 24 h.
For `CC(=O)NCCCC[C@@H]1NC(=O)[C@H](Cc2c[nH]c3c(C)cccc23)NC(=O)[C@H]([C@@H](C)O)NC(=O)[C@H](CC(N)=O)NC(=O)[C@@H](NC(C)=O)C(C)(C)SSC(C)(C)[C@@H](C(=O)N[C@@H](Cc2ccc(OCCN)cc2)C(=O)N[C@@H](Cc2ccc3ccccc3c2)C(=O)N[C@@](C)(CCCCN)C(=O)N[C@@H](CCCCNC(=O)CC(C)C)C(=O)N[C@@H](CC(N)=O)C(=O)N[C@H](CC(C)C)C(N)=O)NC1=O` [compound 356], the half-life at 20 μM in data set [1] is 10 h; in data set [2], greater than 24 h; in data set [3] it was greater than 24 h; in “Stability in rat plasma”, greater than 24 h.
Take `CC(=O)NCCCC[C@@H]1NC(=O)[C@H](Cc2c[nH]c3c(C)cccc23)NC(=O)[C@H]([C@@H](C)O)NC(=O)[C@H](CC(N)=O)NC(=O)[C@@H](NC(C)=O)C(C)(C)SSC(C)(C)[C@@H](C(=O)N[C@@H](Cc2ccc(OCCN)cc2)C(=O)N[C@@H](Cc2ccc3ccccc3c2)C(=O)N[C@@](C)(CCCCN)C(=O)N[C@@H](CCCCNC(=O)CC(F)(F)F)C(=O)N[C@@H](CC(N)=O)C(=O)N[C@H](CC(C)C)C(N)=O)NC1=O` [compound 360]: the “SIF t½” value in data set [1] was 24 h. The half-life at 20 μM (in data set [2]; in data set [3]; in “Stability in rat plasma”) was greater than 24 h in each case.
Turning to `CCCCC(=O)NCCCC[C@H](NC(=O)[C@](C)(CCCCN)NC(=O)[C@H](Cc1ccc2ccccc2c1)NC(=O)[C@H](Cc1ccc(OCCN)cc1)NC(=O)[C@H]1NC(=O)[C@H](CCCCNC(C)=O)NC(=O)[C@H](Cc2c[nH]c3c(C)cccc23)NC(=O)[C@H]([C@@H](C)O)NC(=O)[C@H](CC(N)=O)NC(=O)[C@@H](NC(C)=O)C(C)(C)SSC1(C)C)C(=O)N[C@@H](CC(N)=O)C(=O)N[C@H](CC(C)C)C(N)=O` [compound 361], the “SIF t½” value in data set [1] is 24 h. Moreover, the half-life at 20 μM (in data set [2]; in data set [3]; in the data set “Stability in rat plasma”) was greater than 24 h throughout.
